The text below walks through data of ChEMBL document CHEMBL1125532, “Synthesis and cholinergic properties of N-aryl-2-[[[5-[(dimethylamino)methyl]-2-furanyl]methyl]thio]ethylamino analogs of ranitidine” (J Med Chem, 1992).

Residue numbers refer to the chain shown, from its start. The source made the active and inactive calls. The rule behind the calls is not given here. Where only a bound is given, the exact number is not on record here.

The target of experiment [1] is T1, Acetylcholinesterase (Homo sapiens, UniProt P22303). Put plainly: In vitro acetyl cholinesterase (AChE-I) inhibitory activity to determine its ability to reverse the cholinergic deficit characteristic of AD.
T1 sequence (P22303 whole entry): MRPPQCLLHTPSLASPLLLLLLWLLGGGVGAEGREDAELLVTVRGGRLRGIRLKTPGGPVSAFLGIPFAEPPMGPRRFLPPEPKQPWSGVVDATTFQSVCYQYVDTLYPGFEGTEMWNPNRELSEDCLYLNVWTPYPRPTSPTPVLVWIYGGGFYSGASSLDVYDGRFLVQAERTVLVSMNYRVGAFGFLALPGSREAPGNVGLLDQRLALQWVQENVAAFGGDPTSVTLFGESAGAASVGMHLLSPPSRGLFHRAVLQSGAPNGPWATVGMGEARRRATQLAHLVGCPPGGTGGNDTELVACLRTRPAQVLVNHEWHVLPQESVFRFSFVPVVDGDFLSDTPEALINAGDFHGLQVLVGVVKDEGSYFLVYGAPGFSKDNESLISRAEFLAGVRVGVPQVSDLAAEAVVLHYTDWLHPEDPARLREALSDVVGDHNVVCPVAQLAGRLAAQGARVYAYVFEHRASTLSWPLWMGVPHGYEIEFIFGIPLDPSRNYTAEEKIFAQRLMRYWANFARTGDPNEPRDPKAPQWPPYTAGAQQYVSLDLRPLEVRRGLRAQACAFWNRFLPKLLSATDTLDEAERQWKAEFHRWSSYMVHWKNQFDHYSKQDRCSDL
The species entered for experiment [2] is Rattus norvegicus. Put plainly: Ratio of IC50 (muscarinic acetylcholine receptor M2) to IC50 (muscarinic acetylcholine receptor M1).
In experiment [3] the target is T2, Muscarinic acetylcholine receptor M2 (Rattus norvegicus, UniProt P10980).
T2 sequence (P10980 whole entry): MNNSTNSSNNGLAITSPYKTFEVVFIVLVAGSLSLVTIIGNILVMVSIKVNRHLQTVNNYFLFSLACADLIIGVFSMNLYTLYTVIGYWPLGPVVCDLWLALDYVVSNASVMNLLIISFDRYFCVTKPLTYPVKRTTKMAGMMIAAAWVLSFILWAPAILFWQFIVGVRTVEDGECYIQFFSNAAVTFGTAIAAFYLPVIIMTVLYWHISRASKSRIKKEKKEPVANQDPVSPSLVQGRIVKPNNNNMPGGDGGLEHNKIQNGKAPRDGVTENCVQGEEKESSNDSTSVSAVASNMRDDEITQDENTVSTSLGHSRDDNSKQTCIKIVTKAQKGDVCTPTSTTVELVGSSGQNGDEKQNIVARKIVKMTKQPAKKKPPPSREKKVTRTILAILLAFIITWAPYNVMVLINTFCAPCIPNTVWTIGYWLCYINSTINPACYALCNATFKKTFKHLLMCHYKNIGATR
Description: Inhibition of [3H]N-methylscopolamine to rat muscarinic acetylcholine receptor M2 from heart tissue

Experiment [4] addresses Cholinesterase (Homo sapiens, UniProt P06276).
Description: In vitro inhibition of human butryl cholinesterase.
Experiment [5] has as its target T3, Muscarinic acetylcholine receptor M1 (Mus musculus, UniProt P12657).
T3 sequence (P12657 whole entry): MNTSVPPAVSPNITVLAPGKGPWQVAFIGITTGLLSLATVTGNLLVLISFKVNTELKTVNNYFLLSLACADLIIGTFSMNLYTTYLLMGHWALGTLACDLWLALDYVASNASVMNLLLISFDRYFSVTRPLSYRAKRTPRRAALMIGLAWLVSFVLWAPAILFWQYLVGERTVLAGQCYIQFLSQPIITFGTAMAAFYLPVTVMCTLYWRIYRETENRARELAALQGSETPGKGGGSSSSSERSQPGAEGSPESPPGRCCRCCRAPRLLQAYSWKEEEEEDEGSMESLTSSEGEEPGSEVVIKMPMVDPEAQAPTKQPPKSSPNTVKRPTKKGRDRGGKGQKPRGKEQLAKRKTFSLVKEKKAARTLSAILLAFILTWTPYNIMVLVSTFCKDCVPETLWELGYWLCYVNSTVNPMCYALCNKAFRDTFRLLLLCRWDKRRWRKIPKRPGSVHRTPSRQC
Briefly: biochemical.
Description: Inhibition of [3H]pirenzepine binding to mouse muscarinic acetylcholine receptor M1 from cerebral cortex

Experiment [6] deals with T1, Acetylcholinesterase.
Description: In vitro inhibition of human acetylcholinesterase.
The target in experiment [7] is Cholinesterases; ACHE & BCHE (Homo sapiens) (UniProt P06276+P22303). Briefly: Ratio of IC50(BChE-I) to IC50(AChE-I). The format is protein assay.
Chain of Cholinesterases; ACHE & BCHE (Homo sapiens) (P06276 whole entry, looked up): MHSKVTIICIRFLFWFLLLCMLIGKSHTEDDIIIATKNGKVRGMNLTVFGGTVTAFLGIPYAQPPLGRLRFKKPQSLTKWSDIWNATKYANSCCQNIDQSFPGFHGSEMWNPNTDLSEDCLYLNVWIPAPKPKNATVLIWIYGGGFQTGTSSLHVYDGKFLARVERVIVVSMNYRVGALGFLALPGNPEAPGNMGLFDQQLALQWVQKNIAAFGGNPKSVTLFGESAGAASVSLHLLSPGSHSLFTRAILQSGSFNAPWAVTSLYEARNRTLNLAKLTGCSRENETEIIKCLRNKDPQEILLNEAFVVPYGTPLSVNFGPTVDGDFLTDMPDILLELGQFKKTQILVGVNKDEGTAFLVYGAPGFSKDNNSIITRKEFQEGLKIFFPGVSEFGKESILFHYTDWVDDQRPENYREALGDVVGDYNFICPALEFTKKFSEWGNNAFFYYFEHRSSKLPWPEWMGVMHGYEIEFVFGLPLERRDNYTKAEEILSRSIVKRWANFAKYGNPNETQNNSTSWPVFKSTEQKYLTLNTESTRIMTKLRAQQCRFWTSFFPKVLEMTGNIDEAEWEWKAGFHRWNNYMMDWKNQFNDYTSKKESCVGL
Chain of Cholinesterases; ACHE & BCHE (Homo sapiens) (P22303 whole entry, looked up): as the sequence (P22303 whole entry) above
The species named for experiment [8] is Rattus norvegicus. Briefly: Concentration required to potentiate the contraction of isolated rat ileum produced by 1 x 10 e -7 M Ach by 20 %; inactive. The format is functional.
The target in experiment [9] is T2, Muscarinic acetylcholine receptor M2. Briefly: Binding affinity against rat muscarinic acetylcholine receptor M2 using heart tissue and [3H]N-methylscopolamine.
For experiment [10], the species on record is Rattus norvegicus.
Experiment [11] relates to Mus musculus. Briefly: Effect on brain acetylcholine concentration in mice after intraperitoneal administration of 40% lethal dose (68 mg/kg. The format is functional.
In experiment [12] the test system is Mus musculus. Briefly: Effect on brain acetylcholine concentration in mice after intraperitoneal administration of 80% lethal dose (170 mg/kg). It is filed as functional.
For experiment [13], the target named is T4, Muscarinic acetylcholine receptor M2 (Mus musculus, UniProt Q9ERZ4).
T4 sequence (Q9ERZ4 whole entry): T2 sequence (P10980 whole entry) with V270G, R316K, K321R, A331T, V336A
Briefly: biochemical.

Experiment [14] addresses T4, Muscarinic acetylcholine receptor M2. Briefly: biochemical. This is another data set of the same source.
Description: Ability to displace [3H]methylscopolamine ([3H]NMS) from mouse cerebral cortex
The subject of experiment [15] is Mus musculus. Briefly: Effect on brain acetylcholine concentration in mice after intraperitoneal administration of 60% lethal dose (102 mg/kg). The format is functional.
In experiment [16] the test system is Mus musculus. Briefly: Effect on brain acetylcholine concentration in mice after intraperitoneal administration of 80% lethal dose (80 mg/kg)(***: p <= 0.001). The format is functional.
Experiment [17] deals with Mus musculus. Put plainly: Effect on brain acetylcholine concentration in mice after intraperitoneal administration of 60% lethal dose (66 mg/kg). It is filed as functional.

Chain of Cholinesterase (P06276 whole entry): as the sequence (P06276 whole entry, looked up) above

In turn, `CN(C)Cc1ccc(CSCCNc2cccc(F)c2C#N)o1` displayed an IC50 in experiment [1] of 2.1 µM.
With `CN(C)Cc1ccc(CSCCNc2cc(NCc3cccnc3)c([N+](=O)[O-])cc2[N+](=O)[O-])o1`, the Ratio in [2] worked out at 1.1; in experiment [7], 19. Also, the IC50 in experiment [3] turned out to be 0.4 µM; in [4], 6.1 µM; in experiment [5], 0.38 µM; in [6] it was 0.31 µM. In addition, in [8], the Ileal activity entry is “inactive”.
In the case of `CCCNc1cc(NCCSCc2ccc(CN(C)C)o2)c([N+](=O)[O-])cc1[N+](=O)[O-]`, the figures for the Ratio in experiment [2] and in experiment [7] were 1.1 and 15, respectively. Further, the IC50 came to 3.5 µM in [9], 3.8 µM in experiment [4], 3.2 µM in experiment [5] and 0.26 µM in experiment [6]. Further, in experiment [10], the Ileal activity is <1 µM.
On to `CCCCCNc1cc(NCCSCc2ccc(CN(C)C)o2)c([N+](=O)[O-])cc1[N+](=O)[O-]`, for which the IC50 in [6] came to 1.2 µM.
As to `CN(C)Cc1ccc(CSCCNc2cc(Oc3ccc([N+](=O)[O-])cc3)c([N+](=O)[O-])cc2[N+](=O)[O-])o1`, the IC50 in experiment [4] stood at 1.1 µM; in experiment [6] it was 0.27 µM.
Take `CN(C)CCNc1cc(NCCSCc2ccc(CN(C)C)o2)c([N+](=O)[O-])cc1[N+](=O)[O-]`: the Ratio was 0.57 in experiment [2] and 2.8 in [7]. Besides, the IC50 is 0.38 µM in experiment [3], 1.4 µM in experiment [4], 0.67 µM in experiment [5] and 0.52 µM in [6]. The Ileal activity in [10] was <0.01 µM.
Turning to `CN(C)Cc1ccc(CSCCNc2cc(F)c([N+](=O)[O-])cc2[N+](=O)[O-])o1`, the Ratio in experiment [2] was determined as 3.9; in [7] it was 33. The IC50 is 7 µM in [3], 3.8 µM in experiment [4], 1.8 µM in experiment [5] and 0.12 µM in experiment [6]. Besides, in experiment [10], the Ileal activity was <0.01 µM.
As to `CN(C)Cc1ccc(CSCCNc2cc(NCCCN3CCOCC3)c([N+](=O)[O-])cc2[N+](=O)[O-])o1`, the Ratio in experiment [2] came out at 0.57; in experiment [7] it was 13. Moreover, the IC50 in experiment [3] stood at 0.3 µM; in experiment [4], 4.7 µM; in experiment [5], 0.53 µM; in experiment [6] it was 0.37 µM. In experiment [10], the Ileal activity is <0.1 µM.
For the molecule `CN(C)Cc1ccc(CSCCNc2cc(NN)c([N+](=O)[O-])cc2[N+](=O)[O-])o1`, the figures for the “% of control” value in experiment [11], in [12] and in [15] were 110%, 126.8% and 128.8%, respectively. In addition, the Ratio in experiment [2] was found to be 1.2; in experiment [7], 67. Further, the IC50 in experiment [3] was found to be 4.7 µM; in experiment [4], 5.1 µM; in [5], 3.8 µM; in experiment [6], 0.076 µM. Moreover, the Ki is 1.1 µM in experiment [13] and 12 µM in [14]. Besides, the Ileal activity in experiment [10] is <0.1 µM.
Consider `CN(C)Cc1ccc(CSCCNc2cc(N)c([N+](=O)[O-])cc2[N+](=O)[O-])o1`, for which the results for the Ratio in experiment [2] and in experiment [7] were 1.8 and 28, respectively. The “% of control” value in experiment [16] is on record as 153.2%; in [17], 126.8%. For the same molecule, the IC50 in experiment [9] came out at 6.8 µM; in experiment [4], 2.4 µM; in experiment [5], 3.8 µM; in experiment [6] it was 0.083 µM. Also, the Ki came out at 0.46 µM in experiment [13] and 9.5 µM in experiment [14]. Further, the Ileal activity in [10] is <0.1 µM.
`CC(C)=NNc1cc(NCCSCc2ccc(CN(C)C)o2)c([N+](=O)[O-])cc1[N+](=O)[O-]`: the Ratio in experiment [2] was 1.1; in experiment [7], 19. In addition, the IC50 in experiment [3] was found to be 3.5 µM; in experiment [4] it was 8.4 µM; in experiment [5], 3.1 µM; in [6], 0.44 µM. In [10], the Ileal activity is <0.1 µM.
As for `CN(C)Cc1ccc(CSCCNc2cc(Nc3ccccc3)c([N+](=O)[O-])cc2[N+](=O)[O-])o1`, the figures for the Ratio in [2] and in experiment [7] were 1 and 2.5, respectively. The 50% inhibitory concentration (IC50) in [3] is 6.4 µM; in experiment [4] it was 1.6 µM; in experiment [5], 6.4 µM; in experiment [6], 0.64 µM. The Ileal activity entry in experiment [8] is “inactive”.
Consider `CN(C)Cc1ccc(CSCCNc2cc(NCc3ccccn3)c([N+](=O)[O-])cc2[N+](=O)[O-])o1`, for which the Ratio came out at 1.6 in experiment [2] and 4.1 in experiment [7]. The IC50 in experiment [3] worked out at 2.4 µM; in [4], 5.2 µM; in experiment [5] it was 1.5 µM; in experiment [6], 1.3 µM. Further, the Ileal activity in experiment [10] was <1 µM.
Regarding `CN(C)Cc1ccc(CSCCNc2cc(Nc3ccccc3C#N)c([N+](=O)[O-])cc2[N+](=O)[O-])o1`, the Ratio in [2] was found to be 1.1; in [7] it was 2.8. Moreover, the IC50 in experiment [3] came out at 3.7 µM; in [4] it was 1.8 µM; in [5] it was 3.3 µM; in experiment [6], 0.63 µM. For the same molecule, in [8], the Ileal activity entry was “inactive”.
As for `CN(C)Cc1ccc(CSCCNc2cc(Nc3ncccc3[N+](=O)[O-])c([N+](=O)[O-])cc2[N+](=O)[O-])o1`, the values for the IC50 in [4] and in experiment [6] were 18 µM and 0.65 µM, respectively.
Regarding `CN(C)Cc1ccc(CSCCNc2cc(Nc3ccc(F)cc3)c([N+](=O)[O-])cc2[N+](=O)[O-])o1`, the Ratio stood at 2.1 in experiment [2] and 1.6 in [7]. Moreover, the IC50 in experiment [3] came to 4.4 µM; in experiment [4] it was 1.1 µM; in experiment [5] it was 2.1 µM; in [6], 0.68 µM. The Ileal activity in [10] was <0.01 µM.
Consider `O=C1CCCN1CC#CCN1CCCC1` [OXOTREMORINE], for which the Ki came out at 0.0017 µM in experiment [13] and 1.5 µM in experiment [14].
For `CN(C)Cc1ccc(CSCCNc2cc(NCc3ccccc3)c([N+](=O)[O-])cc2[N+](=O)[O-])o1`, the Ratio in [2] came to 1.7. Besides, the results for the IC50 in experiment [3] and in experiment [5] were 3.3 µM and 2 µM, respectively. Moreover, the Ileal activity result in [8] was “inactive”.
In turn, `CNC(=O)Oc1ccc2c(c1)[C@]1(C)CCN(C)[C@@H]1N2C` [PHYSOSTIGMINE] gave an IC50 in experiment [3] of 160 µM. For the same molecule, the Ileal activity in experiment [10] is <0.005 µM.
Regarding `CNc1cc(NCCSCc2ccc(CN(C)C)o2)c([N+](=O)[O-])cc1[N+](=O)[O-]`, the Ratio in experiment [2] came to 7.2; in experiment [7], 21. The IC50 in [9] came out at 3.1 µM; in experiment [4] it was 3.3 µM; in experiment [5] it was 0.43 µM; in experiment [6], 0.16 µM. Besides, the Ileal activity result in [8] was “inactive”.
With `CN(C)Cc1ccc(CSCCNc2ccc(F)cc2[N+](=O)[O-])o1`, the Ratio in [2] came out at 0.6; in [7], 5.1. The IC50 came to 2.4 µM in experiment [3], 3.3 µM in [4], 4 µM in experiment [5] and 0.65 µM in experiment [6]. In addition, in experiment [8], the Ileal activity entry is “inactive”.
